The text below walks through data of patent publication US6039950A, “Pharmaceutical grade saw palmetto” (priority 1997, dated 2000).

The test system of data set [1] is 5α-reductase. The following applies: cited from earlier work.
For data set [2], the target named is T1, Cyclooxygenase-2 (Ovis aries, UniProt P79208).
T1 construct: Cyclooxygenase-2 (from sheep placenta); from tissue; host or cells: sheep placenta; assay by Panlabs
Kind of data set: biochemical. It counts as biochemical, sheep. As to the method: The reaction is initiated by addition of arachidonic acid (100 mM) and terminated after 20 minutes incubation at 37° C. by addition of TCA.

Data set [3] has as its target T2, 5-lipoxygenase (Rattus norvegicus, UniProt P12527).
T2 sequence (P12527 1-673): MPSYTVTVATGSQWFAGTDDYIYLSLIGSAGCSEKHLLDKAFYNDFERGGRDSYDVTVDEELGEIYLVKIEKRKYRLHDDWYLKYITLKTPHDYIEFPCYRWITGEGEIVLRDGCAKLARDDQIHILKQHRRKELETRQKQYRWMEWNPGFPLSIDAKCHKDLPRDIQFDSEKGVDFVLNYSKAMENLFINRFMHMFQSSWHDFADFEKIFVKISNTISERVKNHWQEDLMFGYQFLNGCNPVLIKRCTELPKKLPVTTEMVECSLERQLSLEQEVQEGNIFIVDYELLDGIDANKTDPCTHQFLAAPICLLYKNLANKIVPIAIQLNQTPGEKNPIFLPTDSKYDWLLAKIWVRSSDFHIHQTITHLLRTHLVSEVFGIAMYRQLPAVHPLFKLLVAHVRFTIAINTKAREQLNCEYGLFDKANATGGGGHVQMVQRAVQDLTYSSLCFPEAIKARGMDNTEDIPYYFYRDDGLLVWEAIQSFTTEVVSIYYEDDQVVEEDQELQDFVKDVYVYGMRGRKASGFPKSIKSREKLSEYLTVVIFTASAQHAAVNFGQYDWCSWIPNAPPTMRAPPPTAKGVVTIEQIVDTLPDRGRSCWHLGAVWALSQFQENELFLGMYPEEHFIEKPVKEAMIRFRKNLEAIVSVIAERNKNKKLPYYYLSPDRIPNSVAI
As to the kind of experiment: biochemical. The following applies: for 5-Lipo activity: screened at 3×10^-5 (30 μM).
Experimental: The procedure was as follows. 5-lipoxygenase assays were run using a crude enzyme preparation from rat basophilic leukemia cells (RBL-1). Test compounds were pre-incubated with the enzyme for 5 minutes at room temperature and the reaction was initiated by addition of substrate (arachidonic acid). Following an 8 minute incubation at room temperature, the reaction was terminated by addition of citric acid, and levels of 5-HETE were determined by 5-HETE radioimmunoassay (RIA).
Compounds and fractions were screened at an initial concentration of 3×10^-5.

For data set [4], the target named is T3, Cyclooxygenase-1 (Ovis aries, UniProt P05979).
T3 construct: Cyclooxygenase-1 (from ram seminal vesicles); from tissue; host or cells: ram seminal vesicles; assay by Panlabs
T3 sequence (P05979 25-600): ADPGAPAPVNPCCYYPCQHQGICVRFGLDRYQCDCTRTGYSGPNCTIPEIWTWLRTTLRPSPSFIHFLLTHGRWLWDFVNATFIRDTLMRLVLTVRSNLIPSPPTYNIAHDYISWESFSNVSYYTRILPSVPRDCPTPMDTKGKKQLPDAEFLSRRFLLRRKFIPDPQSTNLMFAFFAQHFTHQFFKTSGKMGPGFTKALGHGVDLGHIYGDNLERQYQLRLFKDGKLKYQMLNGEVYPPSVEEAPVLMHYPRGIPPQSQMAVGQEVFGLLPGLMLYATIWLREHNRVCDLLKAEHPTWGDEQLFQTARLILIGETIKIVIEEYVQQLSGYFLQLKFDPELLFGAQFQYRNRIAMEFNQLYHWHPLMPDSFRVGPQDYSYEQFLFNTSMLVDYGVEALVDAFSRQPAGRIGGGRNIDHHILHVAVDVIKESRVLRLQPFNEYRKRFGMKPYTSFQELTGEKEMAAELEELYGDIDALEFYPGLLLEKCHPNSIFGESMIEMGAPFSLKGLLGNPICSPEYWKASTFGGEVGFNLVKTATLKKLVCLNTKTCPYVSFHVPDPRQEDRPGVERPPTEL
As to the kind of experiment: biochemical. It counts as biochemical, ram. Particulars: for Cox1 activity: screened at 3×10^-4 M. Here is the method: The reaction was initiated by addition of arachidonic acid (100 mM) and terminated after 20 minutes incubation at 37° C. by addition of trichloroacetic acid (TCA).

The subject of data set [5] is Type 2 5α-reductase. Particulars: cited from earlier work.
Data set [6] concerns Type 1 5α-reductase. Particulars: cited from earlier work.
For data set [7] the following is noted: cited from earlier work; for time to degradation in oil preparations: exposed to light, "in as little as".
Data set [8] has as its target 5α-reductase type 2. The following applies: cited from earlier work.
The test system of data set [9] is Type 1 5α-reductase. The following applies: Table 2, cited from earlier work; for IC50: read-out: IC50 for DHT, Type 1 5α-reductase.
Data set [10] has as its target 5α-reductase type 1. Particulars: Table 1; read-out: IC50 for DHT inhibition, epithelial cells (type 1); cited from earlier work.
Data set [11] concerns 5α-reductase. Particulars: rat, in vivo; cited from earlier work.
Data set [12] concerns 5α-reductase. Particulars: in vivo; cited from earlier work.
The test system of data set [13] is smooth muscle. Particulars: cited from earlier work.
Where [14] appears, read: Table 8, read-out: Cyclooxygenase-2 IC50 (Table 8).
Where [15] appears, read: Table 8, read-out: 5 Lipoxygenase IC50 (Table 8).
[16] abbreviates: Table 8, read-out: Cyclooxygenase-1 IC50 (Table 8).
Setting [17] is: read-out: Testosterone affinity, Km.
The mark [18] stands for this setting: Table 1, read-out: IC50 for DHT inhibition, stroma (type 2).
[19] abbreviates: fibroblasts, read-out: IC50, inhibition of DHT formation in fibroblasts.

Broadly, the IC50 is the concentration that gives 50% inhibition. As usually defined, the Km is the substrate concentration at which the rate is half of its maximum. In general, Ki refers to a dissociation constant, usually derived from enzyme kinetics or from competition with a known ligand.

Read-outs that look alike come from different tables or passages of the source. Numbered stars: 1 amine (or outer) side, 2 acyl side, 3 side chain; on linkers, the order of the positions; unused ones are H or OH. Bridge positions count the residues as written; N and C are the ends. Square brackets hold non-standard residues; d marks the D form. Peptide text beside a SMILES is read from it. I, II: the chains in the order shown. Actinocin(9to1) = Cc1c2oc3c(C)ccc(C(=O)[*:1])c3nc-2c(C(=O)[*:2])c(N)c1=O; NMeV = CN[C@H](C(=O)O)C(C)C; Sar = CNCC(=O)O

T1 sequence (P79208 17-603): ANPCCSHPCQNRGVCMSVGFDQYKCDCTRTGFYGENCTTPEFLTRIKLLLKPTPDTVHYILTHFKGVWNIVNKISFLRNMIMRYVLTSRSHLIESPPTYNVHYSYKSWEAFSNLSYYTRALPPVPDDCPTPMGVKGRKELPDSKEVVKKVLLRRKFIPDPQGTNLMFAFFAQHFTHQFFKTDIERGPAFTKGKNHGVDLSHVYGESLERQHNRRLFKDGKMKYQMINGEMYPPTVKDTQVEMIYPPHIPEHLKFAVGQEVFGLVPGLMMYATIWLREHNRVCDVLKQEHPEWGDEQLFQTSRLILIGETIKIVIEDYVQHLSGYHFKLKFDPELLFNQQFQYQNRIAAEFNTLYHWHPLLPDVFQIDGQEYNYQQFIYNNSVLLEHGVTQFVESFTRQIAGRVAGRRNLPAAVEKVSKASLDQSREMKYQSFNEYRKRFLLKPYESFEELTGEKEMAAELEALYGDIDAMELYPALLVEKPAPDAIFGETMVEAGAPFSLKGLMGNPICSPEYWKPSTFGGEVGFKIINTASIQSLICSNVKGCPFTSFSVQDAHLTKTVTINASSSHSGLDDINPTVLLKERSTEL

Turning to `CCCCCCCCCCCC(=O)OCC` [Ethyl laurate], in data set [1], the 5α-reductase inhibitory activity result is recorded as “markedly less effective”. In data set [2], the Cox2 activity result is reported as “Negative”. Further, the figures for the IC50 in [2] (setting [14]), in data set [3] (setting [15]) and in data set [4] (setting [16]) were over 300000 nM, over 30000 nM and over 300000 nM, respectively. Moreover, the 5-Lipo activity entry in data set [3] was “Negative”. In data set [4], the Cox1 activity entry was “Negative”.
`C[C@]12CC[C@H]3[C@@H](CCC4=CC(=O)CC[C@@]43C)[C@@H]1CC[C@@H]2O` [testosterone]: the entries for the “Testosterone, Vmax” value in data set [5] and in data set [6] were 57.6 nmoles/10^6 cells/min and 4.2 nmoles/10^6 cells/min, respectively. The figures for the Km in data set [5] (setting [17]) and in [6] (setting [17]) were 0.5 µM and 2.9 µM, respectively.
In the case of `CCC(C)C(=O)[C@]12C(=O)[C@](CC=C(C)C)(C[C@H](CC=C(C)C)[C@@]1(C)CCC=C(C)C)C(=O)C(CC=C(C)C)=C2O` (stereo partly drawn) [adhyperforin], the “time to degradation in oil preparations” value in data set [7] was 14 days.
Take `Cc1cc(O)c2c(=O)c3c(O)cc(O)c4c5c(O)cc(O)c6c(=O)c7c(O)cc(C)c8c1c2c(c34)c(c78)c65` [hypericin]: the “hypericin content on storage” value in data set [7] (60-140 °C, more than six weeks, powdered extract, tablet and juice) was “drop significantly”.
On to `CC(C)=CCCC1(C)C(CC=C(C)C)CC2(CC=C(C)C)C(=O)C(CC=C(C)C)=C(O)C1(C(=O)C(C)C)C2=O` (stereo not drawn) [hyperforin], for which the “time to degradation in oil preparations” value in data set [7] is on record as 14 days.
On to `CCCCC/C=C\C/C=C\CCCCCCCC(=O)O` [Linoleic Acid], for which the 5α-reductase inhibitory activity result in [1] was “particularly potent inhibitors”. Further, in data set [2], the Cox2 activity result was “Negative” and the IC50 was over 300000 nM. Besides, in [3], the IC50 was over 30000 nM and the 5-Lipo activity entry is on record as “Negative”. In addition, in [4], the IC50 was over 300000 nM and the Cox1 activity entry is reported as “Negative”.
For the compound `CCN(CC)C(=O)[C@H]1CC[C@H]2[C@@H]3CC[C@H]4N(C)C(=O)CC[C@]4(C)[C@H]3CC[C@]12C` [4-MA], the IC50 in data set [8] (setting [18]) is 50 nM; in [8] (setting [19]), 50 nM; in [9], 10 nM; in data set [10] it was 20 nM. In data set [9], the Inhibition type entry is “Competitive”.
Turning to `CC/C=C\C/C=C\C/C=C\CCCCCCCC(=O)O` [Linolenic Acid], the 5α-reductase inhibitory activity result in data set [1] is on record as “particularly potent inhibitors”. The Cox2 activity result in data set [2] is reported as “Negative”. Further, the IC50 is over 300000 nM in data set [2] (setting [14]) and 12000 nM in [3].
For the compound `CC(C)(C)NC(=O)[C@H]1CC[C@H]2[C@@H]3CC[C@H]4NC(=O)C=C[C@]4(C)[C@H]3CC[C@]12C` [Finasteride], the IC50 in data set [8] (setting [18]) was 30 nM; in [8] (setting [19]), 30 nM; in data set [9] it was 500 nM; in data set [5] (read-out: inhibition, IC50) it was 10.7 nM; in data set [10] it was 400 nM; in data set [6] (read-out: inhibition, IC50), 400 nM. The “inhibition of 5α-reductase in castrated rats” value in [11] is listed as “inhibits 5α-reductase”. Moreover, the Inhibition type result in [9] is listed as “Competitive”. Further, the figures for the type of inhibition entry in data set [5] and in [6] were “(non)competitive” and “competitive”, respectively. Moreover, the Ki is 7.3 nM in [5] (read-out: inhibition, Ki) and 108 nM in data set [6] (read-out: inhibition, Ki). Besides, in data set [12], the “decrease in serum DHT levels” value is “decrease in serum DHT levels”.
Turning to `Cc1c2oc3c(C)ccc(C(=O)N[C@@H]4C(=O)N[C@H](C(C)C)C(=O)N5CCC[C@H]5C(=O)N(C)CC(=O)N(C)[C@@H](C(C)C)C(=O)O[C@@H]4C)c3nc-2c(C(=O)N[C@@H]2C(=O)N[C@H](C(C)C)C(=O)N3CCC[C@H]3C(=O)N(C)CC(=O)N(C)[C@@H](C(C)C)C(=O)O[C@@H]2C)c(N)c1=O` [actinomycin D] (I: T[dV]P[Sar][NMeV] / II: T[dV]P[Sar][NMeV]; ester I:1-I:C, II:1-II:C; linker I:N-II:N via Actinocin(9to1)), the “effect on relaxant effect of Sabal extracts” value (from here on “effect on relaxant effect”) in [13] is “antagonized the effect of the total lipidic extract without modifying that of the saponifiable extract”.
Turning to `O=c1c(-c2ccc(O)cc2)coc2cc(O)cc(O)c12` [genistein], the “effect on relaxant effect” value in data set [13] is recorded as “not modified”.
Regarding `CCCCCCCCCCCC(=O)O` [Lauric Acid], in data set [1], the 5α-reductase inhibitory activity entry is on record as “particularly potent inhibitors”. The Cox2 activity entry in data set [2] is on record as “Negative”. Moreover, the IC50 was over 300000 nM in data set [2] (setting [14]), over 30000 nM in data set [3] (setting [15]) and over 300000 nM in data set [4] (setting [16]). Besides, in data set [3], the 5-Lipo activity entry is listed as “Negative”. The Cox1 activity result in data set [4] was “Negative”.
With `C[C@@H]1C[C@@H]([C@H](O)CC2CC(=O)NC(=O)C2)C(=O)[C@@H](C)C1` [Cycloheximide], the “effect on relaxant effect” value in data set [13] is recorded as “antagonized”.
Turning to `CC(C)NC[C@H](O)COc1cccc2ccccc12` [L-propranolol], the “effect on relaxant effect” value in [13] is on record as “potentiated”.
